Laboratory results taken from patent US8975370B2, “Inhibitor proteins of a protease and use thereof” (Universite de Lausanne, priority 2003, dated 2015).
*1 amine or outer side, *2 acyl side, *3 side chain or, on linkers, in order; H or OH if unused. Where a SMILES comes first, the peptide text is derived from it. The star is where a group is joined. AMC = Cc1cc(=O)oc2cc(N*)ccc12; Suc = O=C(CCC(=O)[*:2])[*:1]; MeOSuc = COC(=O)CCC(=O)*

Tests used:
[1] = tested on: human chymotrypsin (Chtr); experiment: Km of chymotrypsin for its fluorogenic substrate (used for ka correction, eq 2); format: biochemical; details: substrate Suc-AAPF-AMC, kinetics in 50 mM Tris pH 7.5, 150 mM NaCl, 0.05% Triton X-100, 0.01% BSA, 25° C.
Text: (§1) hK2 and hK3 (PSA) were purified from human semen as previously described (Frenette G, Gervais Y, Tremblay R R, Dube J Y. 1998 “Contamination of purified prostate-specific antigen preparations by kallikrein hK2” J Urol 159, 1375-8), anti-hK2 and anti-PSA monoclonal antibodies were a gift from Professor R R Tremblay, Laval University, Canada. Human chymotrypsin (Chtr), urokinase plasminogen activator (uPA), human kallikrein hK1, human plasma kallikrein (PK), human neutrophil elastase (HNE) and commercial ACT (human plasma α1-antichymotrypsin) were purchased from Calbiochem. […]
(§2) The association rate constants for interactions of hK2, chymotrypsin, PK and HNE with different rACTs were determined under pseudo-first order conditions using the progress curve method (Morrison J F, Walsh C T. 1988 “The behavior and significance of slow-binding enzyme inhibitors” Adv. Enzymol. Relat. Areas Mol. Biol 61, 201-301). […] Each reaction was made in reaction buffer (50 mM Tris pH 7.5, 150 mM NaCl, 0.05% Triton X-100, 0.01% BSA) at 25° C. for 45 min and the rate of product formation was measured using a FLx800 fluorescence 96-well microplate reader (Biotek, USA). […]
(§3) For each inhibitor, a kobs was calculated, for four different concentrations of inhibitors, by non linear regression of the data using equation 1. […]

[2] = biological target: T1, human neutrophil elastase (HNE) (Homo sapiens, UniProt P08246); experiment: Km of HNE for its fluorogenic substrate (used for ka correction, eq 2); format: biochemical; details: substrate MeOSuc-AAPV-AMC, kinetics in 50 mM Tris pH 7.5, 150 mM NaCl, 0.05% Triton X-100, 0.01% BSA, 25° C.
T1 construct: substrate MeOSuc-AAPV-AMC
T1 sequence (P08246 30-267): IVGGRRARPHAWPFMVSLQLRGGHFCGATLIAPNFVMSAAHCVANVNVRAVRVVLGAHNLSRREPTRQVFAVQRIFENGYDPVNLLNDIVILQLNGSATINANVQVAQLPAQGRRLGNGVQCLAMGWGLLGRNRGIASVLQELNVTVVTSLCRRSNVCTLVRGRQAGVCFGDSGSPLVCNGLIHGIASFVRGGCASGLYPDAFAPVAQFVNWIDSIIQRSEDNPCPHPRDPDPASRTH
Text: as §1, §2, §3

Cc1cc(=O)oc2cc(NC(=O)[C@H](Cc3ccccc3)NC(=O)[C@@H]3CCCN3C(=O)[C@H](C)NC(=O)[C@H](C)NC(=O)CCC(=O)O)ccc12 [Suc-AAPF-AMC, Suc-Ala-Ala-Pro-Phe-AMC] (Suc-AAPF-{AMC})
Km [1]: 145 µM

COC(=O)CCC(=O)N[C@@H](C)C(=O)N[C@@H](C)C(=O)N1CCC[C@H]1C(=O)N[C@H](C(=O)Nc1ccc2c(C)cc(=O)oc2c1)C(C)C [MeOSuc-AAPV-AMC, MeOSuc-Ala-Ala-Pro-Val-AMC] (MeOSuc-AAPV-{AMC})
Km [2]: 130 µM
